Laboratory results taken from publication PMC5477036, “Design and synthesis of biphenyl and biphenyl ether inhibitors of sulfatases” (Chemical Science, 2016).

What was measured:
Type in all cases: biochemical
Sulf-2 = target: T1, Sulf-2 (Homo sapiens, UniProt Q8IWU5); experiment: Inhibition of Sulf-2-catalysed desulfation of 4-MUS to fluorescent MU; conditions: for inhibition at 1000 µM: 1 mM compound, 4-MUS substrate, means of two or more determinations, read-out: Sulf-2% inh @ 1 mM; for IC50: non-linear regression, 7 inhibitor concentrations in duplicate, mean ± SEM
T1 construct: host or cells: 293T cells, transiently transfected
Procedure: (§1) Compounds were assayed for their ability to inhibit the Sulf-2-catalysed desulfation of 4-methylumbelliferyl sulfate (4-MUS) to the fluorescent 4-methylumbelliferone (MU). To determine their sulfatase selectivity, inhibition of aryl sulfatases A (ARSA) and B (ARSB) was also assessed. To date no suitable benchmark inhibitors of these sulfatase have been reported. […] In the majority of cases the presence of a substituent on the B-ring was detrimental to Sulf-2 inhibition when compared with unsubstituted biphenyl sulfamate 76. Aminosulfates 54 and 62 and carboxylic acid 15 retained potency. […] Compounds 8, 10, 15, 50 and 51 were also relatively potent ARSA inhibitors. […] Aminosulfates 56 and 63 were the best Sulf-2 inhibitors lacking a trichloroethylsulfamate group.
1 – Biological assay protocols
Compounds were screened using 4-MUS as a substrate for Sulf-2 according to a protocol described by Morimoto-Tomita et al.1 Briefly 293T cells were transiently transfected with pcDNA3.1/Myc-His(-)-HSulf-2 DNA (Addgene) and TransIT-LT1 Transfection Reagent (Mirus) using a transfection mixture at the ratio 1:3 (µg DNA:
µL transfection reagent) in Opti-MEM I reduced serum medium (Gibco). Conditioned medium containing Sulf-2 was collected after 3 days and bound to HIS-Select Nickel affinity gel (Sigma) overnight at 4 °C. Beads were washed three times with washing buffer containing 50 mM HEPES (pH 7.5), 300 mM NaCl, 0.05% Tween 20, followed by washing once with washing buffer containing no tween. Beads were suspended in 50 mM Hepes (pH 7.5) and used in inhibition assays. 20 μL of bead slurry was incubated with 1 mM compound (in DMSO) plus 10X reaction buffer (500 mM HEPES pH 7.5, 100 mM CaCl2) for 1 h at 37 °C. The reaction was started by the addition of 20 μL of 20 mM 4-MUS (final concentration of 8 mM) and incubated at 37 °C for 1 h. The reaction was stopped with 100 μL 1 M Tris buffer (pH 10.4) and read at 460 nm following excitation at 355 nm in FLUOstar Omega plate reader (BMG Labtech) using Omega data analysis software. […]

aryl sulfatase B (ARSB) = target: T2, aryl sulfatase B (ARSB) (Homo sapiens, UniProt P15848); experiment: ARSB inhibition assay with 4-MUS substrate; conditions: for inhibition at 1000 µM: 1 mM compound, 4-MUS substrate, means of two or more determinations, read-out: ARSB% inh @ 1 mM; for IC50: non-linear regression, 7 inhibitor concentrations in duplicate, mean ± SEM
T2 construct: purchased R & D Systems
Procedure: as §1
(§2) 1 – Biological assay protocols […]
(§3) Omega data analysis software.
(§4) ARSA and ARSB assay protocols
(§5) Compounds were screened in a 96-well black plate (Sterilin) using 4-MUS as a substrate, using 50 μL reaction mixture containing 40 ng of the commercially available enzymes (ARSA or ARSB from R & D Systems), 50 mM HEPES (pH = 4.5), 10 mM CaCl2, 1 mM test compound (dissolved in DMSO; final concentration of DMSO in reaction = 2%), and H2O (45 μL). The assay mixture was incubated for 1 h at 37 °C, followed by addition of 5 μL of 4-MUS (Km = 1.6 mM for ARSA and 612 μM for ARSB), and incubation for a further 1 h at 37 °C. The reaction was stopped with 100 μL of 1 M Tris (pH = 10.5) and read at 460 nm following excitation at 355 nm in FLUOstar Omega plate reader (BMG Labtech) using Omega data analysis software.

aryl sulfatase A (ARSA) = target: T3, aryl sulfatase A (ARSA) (Homo sapiens, UniProt P15289); experiment: ARSA inhibition assay with 4-MUS substrate; conditions: for inhibition at 1000 µM: 1 mM compound, 4-MUS substrate, means of two or more determinations, read-out: ARSA% inh @ 1 mM; for IC50: non-linear regression, 7 inhibitor concentrations in duplicate, mean ± SEM
T3 construct: purchased R & D Systems
T3 sequence (P15289 19-507): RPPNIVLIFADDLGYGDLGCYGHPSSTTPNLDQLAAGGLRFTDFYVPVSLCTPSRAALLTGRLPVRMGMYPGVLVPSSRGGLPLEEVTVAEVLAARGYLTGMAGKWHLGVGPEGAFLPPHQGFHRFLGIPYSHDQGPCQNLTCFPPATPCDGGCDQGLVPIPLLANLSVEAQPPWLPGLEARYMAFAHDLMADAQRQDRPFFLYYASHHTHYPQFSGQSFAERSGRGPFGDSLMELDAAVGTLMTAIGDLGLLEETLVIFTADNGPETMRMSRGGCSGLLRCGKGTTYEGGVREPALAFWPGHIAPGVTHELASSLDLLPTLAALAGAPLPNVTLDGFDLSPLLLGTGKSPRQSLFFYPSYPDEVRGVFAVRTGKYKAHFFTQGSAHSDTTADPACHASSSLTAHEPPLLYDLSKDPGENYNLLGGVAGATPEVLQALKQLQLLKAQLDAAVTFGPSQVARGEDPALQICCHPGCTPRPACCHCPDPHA
Procedure: as §1, §2, §3, §4, §5

T1 sequence (Q8IWU5 25-870): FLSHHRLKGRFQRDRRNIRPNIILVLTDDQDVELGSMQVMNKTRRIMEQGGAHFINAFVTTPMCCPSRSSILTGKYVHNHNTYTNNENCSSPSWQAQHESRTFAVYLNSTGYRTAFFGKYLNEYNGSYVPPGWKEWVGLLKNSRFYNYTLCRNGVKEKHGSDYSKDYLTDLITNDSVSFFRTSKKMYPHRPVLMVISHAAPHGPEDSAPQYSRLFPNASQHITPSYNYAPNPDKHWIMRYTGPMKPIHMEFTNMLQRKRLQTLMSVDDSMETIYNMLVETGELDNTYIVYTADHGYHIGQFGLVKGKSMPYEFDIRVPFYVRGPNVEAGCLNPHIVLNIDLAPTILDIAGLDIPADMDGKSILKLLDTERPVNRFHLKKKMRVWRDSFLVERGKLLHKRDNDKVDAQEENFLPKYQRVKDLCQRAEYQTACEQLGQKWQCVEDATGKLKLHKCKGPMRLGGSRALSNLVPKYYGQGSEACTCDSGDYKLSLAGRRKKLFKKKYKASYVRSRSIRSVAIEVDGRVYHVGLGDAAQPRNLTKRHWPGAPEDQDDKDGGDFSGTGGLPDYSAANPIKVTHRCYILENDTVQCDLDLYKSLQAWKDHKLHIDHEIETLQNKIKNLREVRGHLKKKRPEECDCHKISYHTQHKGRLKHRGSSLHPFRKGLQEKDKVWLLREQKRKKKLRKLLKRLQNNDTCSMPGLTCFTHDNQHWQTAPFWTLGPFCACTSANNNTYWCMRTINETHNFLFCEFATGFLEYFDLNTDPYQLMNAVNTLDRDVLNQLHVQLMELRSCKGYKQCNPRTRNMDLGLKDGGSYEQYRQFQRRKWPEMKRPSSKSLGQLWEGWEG
T2 sequence (P15848 37-533, species assumed): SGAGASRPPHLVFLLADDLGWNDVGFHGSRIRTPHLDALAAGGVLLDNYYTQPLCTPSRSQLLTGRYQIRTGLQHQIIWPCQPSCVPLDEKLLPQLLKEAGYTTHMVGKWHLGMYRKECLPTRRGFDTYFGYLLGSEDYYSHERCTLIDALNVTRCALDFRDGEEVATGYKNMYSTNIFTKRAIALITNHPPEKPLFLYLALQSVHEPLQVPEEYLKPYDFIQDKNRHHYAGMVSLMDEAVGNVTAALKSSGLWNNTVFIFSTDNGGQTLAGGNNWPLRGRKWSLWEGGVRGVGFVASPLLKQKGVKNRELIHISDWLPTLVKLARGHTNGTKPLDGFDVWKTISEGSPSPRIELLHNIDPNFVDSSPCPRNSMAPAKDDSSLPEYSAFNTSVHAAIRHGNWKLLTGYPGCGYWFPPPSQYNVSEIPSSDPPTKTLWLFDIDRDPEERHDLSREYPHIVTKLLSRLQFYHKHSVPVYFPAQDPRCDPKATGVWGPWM

Row | Compound | inhibition at 1000 µM (Sulf-2) [%] | inhibition at 1000 µM (aryl sulfatase B (ARSB)) [%] | inhibition at 1000 µM (aryl sulfatase A (ARSA)) [%] | IC50 (Sulf-2) [µM] | IC50 (aryl sulfatase B (ARSB)) [µM] | IC50 (aryl sulfatase A (ARSA)) [µM]
1 | COC(=O)c1ccccc1-c1cccc(OS(N)(=O)=O)c1 [Compound 8] | 20 | 0 | 86 | – | – | –
2 | NS(=O)(=O)Oc1cccc(-c2cccc(C(=O)O)c2)c1 [Compound 9] | 12 | 0 | 59 | – | – | –
3 | NS(=O)(=O)Oc1cccc(-c2ccc(C(=O)O)cc2)c1 [Compound 10] | 22 | 0 | 85 | – | – | –
4 | Nc1ccccc1-c1cccc(OS(N)(=O)=O)c1 [Compound 11] | 21 | 0 | 0 | – | – | –
5 | Nc1cccc(-c2cccc(OS(N)(=O)=O)c2)c1 [Compound 12] | 20 | 0 | 0 | – | – | –
6 | Nc1ccc(-c2cccc(OS(N)(=O)=O)c2)cc1 [Compound 13] | 6 | 0 | 61 | – | – | –
7 | NS(=O)(=O)Oc1cccc(-c2ccccc2C(=O)O)c1 [Compound 15] | 31 | 0 | 98 | – | – | –
8 | Nc1ccccc1Oc1cccc(OS(N)(=O)=O)c1 [Compound 25] | 28 | 17 | 75 | – | – | –
9 | Nc1cccc(Oc2cccc(OS(N)(=O)=O)c2)c1 [Compound 26] | 31 | 0 | 75 | – | – | –
10 | Nc1ccc(Oc2cccc(OS(N)(=O)=O)c2)cc1 [Compound 27] | 14 | 0 | 75 | – | – | –
11 | CC(=O)Nc1ccccc1-c1cccc(OS(N)(=O)=O)c1 [Compound 34] | 4 | 0 | 33 | – | – | –
12 | CC(=O)Nc1cccc(-c2cccc(OS(N)(=O)=O)c2)c1 [Compound 35] | 8 | 33 | 52 | – | – | –
13 | CC(=O)Nc1ccc(-c2cccc(OS(N)(=O)=O)c2)cc1 [Compound 36] | 3 | 0 | 0 | – | – | –
14 | CC(=O)Nc1ccccc1Oc1cccc(OS(N)(=O)=O)c1 [Compound 37] | 11 | 48 | 29 | – | – | –
15 | CC(=O)Nc1cccc(Oc2cccc(OS(N)(=O)=O)c2)c1 [Compound 38] | 10 | 0 | 57 | – | – | –
16 | CC(=O)Nc1ccc(Oc2cccc(OS(N)(=O)=O)c2)cc1 [Compound 39] | 14 | 0 | 45 | – | – | –
17 | NS(=O)(=O)Oc1cccc(-c2cccc(NS(=O)(=O)OCC(Cl)(Cl)Cl)c2)c1 [Compound 50] | 99 | 67 | 92 | 167 ± 5 | 130 ± 6 | 55 ± 11
18 | NS(=O)(=O)Oc1cccc(-c2ccc(NS(=O)(=O)OCC(Cl)(Cl)Cl)cc2)c1 [Compound 51] | 96 | 68 | 99 | 566 ± 28 | 101 ± 8 | 91 ± 4
